{"source": "patent US20160331721A1", "about": "“COMPOSITION FOR ALLEVIATING AND PREVENTING ALZHEIMER'S DISEASE” (Sunway Biotech Co., LTD, priority 2015, published 2016)", "key": {"[1]": {"system": "Aβ-induced AD (Alzheimer's disease) rats", "assay": "Working memory test in water maze (Day 27)", "format": "in vivo, SD rats", "details": "FIG. 10, compared to Aβ group", "description": "(§1) Therefore, above descriptions have completely introduce the fabricating way for this Alzheimer's disease alleviating and preventing composition. Next, a variety of experimental data will be presented in following paragraphs for proving the practicability of the Alzheimer's disease alleviating and preventing composition. Please refer to FIG. 4, which shoes an experiment grouping table.\n(§2) Please continuously refer to FIG. 5, where a daily schedule diagram for the animal experiments are provided."}, "[2]": {"system": "Aβ-induced AD (Alzheimer's disease) rats", "assay": "Spatial probe test in water maze (Day 26)", "format": "in vivo, SD rats", "description": "as §1, §2\nNext, spatial probe test is completed on Day 26. During the spatial probe test, the rest platform is removed out of the water tank. To carry out the spatial probe test, the test rat is put on the starting point 1 located in quadrant I; and then, letting the rat swim in the water tank for 90 seconds so as to record the rat's swimming route as well as the time for staying in quadrant IV. Please refer to FIG. 8, which provides swimming route records of the test rats as working the spatial navigation test."}}, "data": [{"smiles": "COc1cc2c(cc1OC)C(=O)C(CC1CCN(Cc3ccccc3)CC1)C2", "note": "(stereo not drawn) [Donepezil]", "values": [{"measurement": "escape latency, working memory test", "setting": "[1]", "value": "the Aβ group spend more time to find the target quadrant"}, {"measurement": "swimming route in spatial probe test", "setting": "[2]; FIG. 8, compared to Aβ group (non-directional swimming), rest platform removed", "value": "directly swim into the quadrant IV"}, {"measurement": "time spent for searching target quadrant", "setting": "[2]; FIG. 9, compared to Aβ group, target quadrant IV", "value": "the Aβ group spend more time to find the target quadrant"}]}]}
